# Columns and labels:
# [1] = test system: New Zealand rabbits with acute ocular hypertension; experiment: Intraocular pressure reduction experiment in New Zealand rabbits with acute ocular hypertension, experiment operation 1; format: in vivo; settings: for Intraocular pressure in the left eye: left eye (not modeled); for Intraocular pressure in the right eye: right eye (induced ocular hypertension)
# Source text: Experimental Example 3. Intraocular Pressure Reduction Experiment in New Zealand Rabbits with Acute Ocular Hypertension
# Acute ocular hypertension of rabbits were induced by anterior chamber injection of a viscoelastic agent and the intraocular pressure reduction action of compound 60 and compound 63 at different concentrations were explored by eye-drop administration.
# Male New Zealand rabbits, aged 97-127 days, weighted 2.5-3.4 kg, purchased from PizhouDongfang Breeding Co. Ltd.
# Male New Zealand rabbits were randomly divided into 8 rabbits/per group according to body weight using a computer-generated randomization method. The animals in each group were injected with medical sodium hyaluronate gel in the anterior chamber of right eye in a single dose, 100 μL/eye, to induce ocular hypertension. In 5-15 minutes, 3 hours and 6 hours after right eye modeling, both eyes were dropped with a solvent, K-115 or test samples (compound 60 at different concentrations) at a volume of 50 μL/eye and intraocular pressure of the animals was measured before administration and in 1, 2, 4, 6, 8 and 10 hours after administration, respectively.
# [2] = test system: New Zealand rabbits with normal intraocular pressure; experiment: Intraocular pressure reduction experiment in New Zealand rabbits with normal intraocular pressure; format: in vivo; settings: for Intraocular pressure in the left eye: 2.5 mg/mL group, left eye (saline or solvent); for Intraocular pressure in the right eye: 2.5 mg/mL in right eye; for Reduction magnitude of intraocular pressure: 2.5 mg/mL, left minus right eye
# Source text: Experimental Example 2. Intraocular Pressure Reduction Experiment in New Zealand Rabbits with Normal Intraocular Pressure
# Rabbits with normal intraocular pressure were adopted to screen intraocular pressure reduction actions of the potential compounds by eye-drop administration.
# Male New Zealand rabbits, aged 97-127 days, weighted 2.65-3.5 kg, purchased from PizhouDongfang Breeding Co. Ltd.
# The male New Zealand rabbits were randomly divided into 8 rabbits/per group using a computer-generated randomization method Animals in each group were eye-dropped with different test samples in the right eye, and normal saline or solvent in the left eye, and the volume of the administration was both 50 μL/eye. The intraocular pressure of the animals was measured before administration and in 1, 2, 4, 6, 8 and 10 hours after the administration, respectively.
# [3] = 2.5 mg/mL both eyes, 1 hour after administration
# [4] = 2.5 mg/mL both eyes, 2 hours after administration
# [5] = 2.5 mg/mL both eyes, 4 hours after administration
# [6] = 2.5 mg/mL both eyes, 6 hours after administration
# [7] = 2.5 mg/mL both eyes, 8 hours after administration
# [8] = 2.5 mg/mL both eyes, 10 hours after administration
# [9] = 2.5 mg/mL both eyes, before administration
# [10] = 5.0 mg/mL both eyes, 1 hour after administration
# [11] = 5.0 mg/mL both eyes, 2 hours after administration
# [12] = 5.0 mg/mL both eyes, 4 hours after administration
# [13] = 5.0 mg/mL both eyes, 6 hours after administration
# [14] = 5.0 mg/mL both eyes, 8 hours after administration
# [15] = 5.0 mg/mL both eyes, 10 hours after administration
# [16] = 5.0 mg/mL both eyes, before administration
# [17] = 10 mg/mL both eyes, 1 hour after administration
# [18] = 10 mg/mL both eyes, 2 hours after administration
# [19] = 10 mg/mL both eyes, 4 hours after administration
# [20] = 10 mg/mL both eyes, 6 hours after administration
# [21] = 10 mg/mL both eyes, 8 hours after administration
# [22] = 10 mg/mL both eyes, 10 hours after administration
# [23] = 10 mg/mL both eyes, before administration
structure (smiles),measurement,setting,value
Cc1cn(COC(=O)c2ccccc2)c(=O)c2cccc(S(=O)(=O)N3CCC(N)C3)c12 (stereo not drawn) [Compound 60],Intraocular pressure in the left eye,[1]; [3],5.00 mmHg
same,Intraocular pressure in the left eye,[1]; [4],6.63 mmHg
same,Intraocular pressure in the left eye,[1]; [5],8.29 mmHg
same,Intraocular pressure in the left eye,[1]; [6],10.71 mmHg
same,Intraocular pressure in the left eye,[1]; [7],12.17 mmHg
same,Intraocular pressure in the left eye,[1]; [8],12.00 mmHg
same,Intraocular pressure in the left eye,[1]; [9],12.00 mmHg
same,Intraocular pressure in the right eye,[1]; [3],22.33 mmHg
same,Intraocular pressure in the right eye,[1]; [4],19.75 mmHg
same,Intraocular pressure in the right eye,[1]; [5],20.29 mmHg
same,Intraocular pressure in the right eye,[1]; [6],17.00 mmHg
same,Intraocular pressure in the right eye,[1]; [7],14.54 mmHg
same,Intraocular pressure in the right eye,[1]; [8],12.54 mmHg
same,Intraocular pressure in the right eye,[1]; [9],12.54 mmHg
same,Intraocular pressure in the left eye,[1]; [10],4.96 mmHg
same,Intraocular pressure in the left eye,[1]; [11],5.96 mmHg
same,Intraocular pressure in the left eye,[1]; [12],8.29 mmHg
same,Intraocular pressure in the left eye,[1]; [13],11.21 mmHg
same,Intraocular pressure in the left eye,[1]; [14],11.46 mmHg
same,Intraocular pressure in the left eye,[1]; [15],11.75 mmHg
same,Intraocular pressure in the left eye,[1]; [16],11.75 mmHg
same,Intraocular pressure in the right eye,[1]; [10],21.00 mmHg
same,Intraocular pressure in the right eye,[1]; [11],16.29 mmHg
same,Intraocular pressure in the right eye,[1]; [12],16.75 mmHg
same,Intraocular pressure in the right eye,[1]; [13],14.88 mmHg
same,Intraocular pressure in the right eye,[1]; [14],13.08 mmHg
same,Intraocular pressure in the right eye,[1]; [15],11.25 mmHg
same,Intraocular pressure in the right eye,[1]; [16],11.25 mmHg
same,Intraocular pressure in the left eye,[1]; [17],4.63 mmHg
same,Intraocular pressure in the left eye,[1]; [18],5.50 mmHg
same,Intraocular pressure in the left eye,[1]; [19],9.25 mmHg
same,Intraocular pressure in the left eye,[1]; [20],10.79 mmHg
same,Intraocular pressure in the left eye,[1]; [21],11.75 mmHg
same,Intraocular pressure in the left eye,[1]; [22],12.13 mmHg
same,Intraocular pressure in the left eye,[1]; [23],12.13 mmHg
same,Intraocular pressure in the right eye,[1]; [17],19.83 mmHg
same,Intraocular pressure in the right eye,[1]; [18],17.46 mmHg
same,Intraocular pressure in the right eye,[1]; [19],15.00 mmHg
same,Intraocular pressure in the right eye,[1]; [20],12.33 mmHg
same,Intraocular pressure in the right eye,[1]; [21],11.25 mmHg
same,Intraocular pressure in the right eye,[1]; [22],12.08 mmHg
same,Intraocular pressure in the right eye,[1]; [23],12.08 mmHg
same,Intraocular pressure in the left eye,[2]; 1 hour after administration,11.63 mmHg
same,Intraocular pressure in the left eye,[2]; 2 hours after administration,11.58 mmHg
same,Intraocular pressure in the left eye,[2]; 4 hours after administration,12.83 mmHg
same,Intraocular pressure in the left eye,[2]; 6 hours after administration,12.38 mmHg
same,Intraocular pressure in the left eye,[2]; 8 hours after administration,12.29 mmHg
same,Intraocular pressure in the left eye,[2]; 10 hours after administration,14.33 mmHg
same,Intraocular pressure in the left eye,[2]; before administration,12.13 mmHg
same,Intraocular pressure in the right eye,[2]; 1 hour after administration,8.38 mmHg
same,Intraocular pressure in the right eye,[2]; 2 hours after administration,7.58 mmHg
same,Intraocular pressure in the right eye,[2]; 4 hours after administration,9.04 mmHg
same,Intraocular pressure in the right eye,[2]; 6 hours after administration,9.88 mmHg
same,Intraocular pressure in the right eye,[2]; 8 hours after administration,11.33 mmHg
same,Intraocular pressure in the right eye,[2]; 10 hours after administration,13.71 mmHg
same,Intraocular pressure in the right eye,[2]; before administration,12.38 mmHg
same,Reduction magnitude of intraocular pressure,[2]; 1 hour after administration,3.25 mmHg
same,Reduction magnitude of intraocular pressure,[2]; 2 hours after administration,4 mmHg
same,Reduction magnitude of intraocular pressure,[2]; 4 hours after administration,3.79 mmHg
same,Reduction magnitude of intraocular pressure,[2]; 6 hours after administration,2.5 mmHg
same,Reduction magnitude of intraocular pressure,[2]; 8 hours after administration,0.96 mmHg
same,Reduction magnitude of intraocular pressure,[2]; 10 hours after administration,0.62 mmHg
same,Reduction magnitude of intraocular pressure,[2]; before administration,−0.25 mmHg
